Assay results reported in US20250032629A1, “NOVEL NUCLEOLIN-BINDING PEPTIDE AND USE THEREOF” (ANYGEN CO., LTD., priority 2020, published 2025).
Ends that are not written are not given here.

Tests used:
[1] = test system: MCF-7; test: Cytotoxicity of AGM-330-CPP fusion peptides; type: cell-based, Human; conditions: MCF-7, fusion peptide alone, Example 11
[2] = test system: HCT-116; test: Cytotoxicity of AGM-330-CPP fusion peptides; type: cell-based, Human; conditions: HCT-116, fusion peptide alone, Example 11
[3] = test system: MDA-MB-231-luc cells; test: Tumor suppression in breast cancer xenograft model; type: in vivo, NPG mice
Procedure: FIG. 14B is a schematic representation of the experimental protocol. Here, anesthetized 6-week-old […] NPG mice were inoculated with a 1:1 mix of Matrigel and 1×10^6 MDA-MB-231-luc cells into the mammary fat pad. […] Nuclei were stained with DAPI (blue), and the scale bar is 50 μm. Bar graphs represent the mean±SD, and statistical analyses were performed by one-way ANOVA with Dunnett's multiple comparison. *, **, and *** indicate P<0.05, P<0.01, and P<0.001, respectively. […]
All animal experiments were performed in accordance with IACUC guidelines (GIST-2019-040). For tumorigenesis experiments, anesthetized 6-week-old female NOD-scid Il2rg^−/− mice (NPG™, VITALSTAR) were inoculated in the mammary fat pad with 1×10^6 MDA-MB-231-luc cells in a volume of 100 μl (n=5˜6 for each group). After tumor cell inoculation, when the tumor volume reached approximately 100 mm^3, the mice were randomly divided into the following five groups: (i) control, (ii) low-dose paclitaxel (2 mg/kg), (iii) high-dose paclitaxel (10 mg/kg), (iv) AGM-330 (16.68 mg/kg or 8.34 mg/kg), and (v) AGM-330-PTX (19.05 mg/kg or 10.71 mg/kg). The tumor size was measured twice a week, and the tumor volume was calculated with the following formula:
For the bioluminescent imaging experiment, D-luciferin (150 mg/kg; PerkinElmer) was intraperitoneally injected into each mouse, and an IVIS 100 imaging system (Xenogen, Corporation, Alameda, CA) was used for bioluminescent monitoring. Mice were anesthetized with vaporized isoflurane (BK Pharm, Ilsan, Korea) and placed in an imaging chamber. After 10 min, each animal was imaged with an exposure time of 1 min. All bioluminescent image data were provided by Living Image software (version 4.5.2, PerkinElmer). Photons detected from tumors were converted to average radiance values (photon/see/cm^2/sr), which are quantitative data obtained from a region of intensity (ROI) and include the photons emitted by bioluminescent cells from an assigned rectangular area over the whole body of each mouse.
Following in vitro proliferation analysis on cancer lines, the present inventors investigated whether AGM-330t-PTX could be a potential therapeutic agent in vivo. The present inventors inoculated MDA-MB-231-luc cells into the mammary fat pad of NPG mice. After the subcutaneous tumors grew to 100 mm^3, comparative efficacy studies were performed by dividing the animals into five groups (n=5/group) treated with vehicle (PBS), AGM-330t (16.68 mg/kg), PTX (2 or 10 mg/kg, respectively) or AGM-330t-PTX (19.05 mg/kg) twice a week by tail vein injection (FIG. 14B). Tumor growth was monitored by measuring volumes twice a week with a caliber rule over the course of 3 weeks.
The present inventors also performed histological staining of the excised tumors, and an independent pathologist evaluated the slides.

[4] = Body weight and serum blood chemistry in xenograft mice
[5] = biological target: T1, recombinant nucleolin protein (UniProt P19338 1-710, limits assumed); test: SPR (Biacore T-200), recombinant NCL immobilised on a CM5 chip, AGM-330 20 nM to 2.5 µM as analyte
T1 construct: also called recombinant NCL; NCL
T1 sequence (P19338 whole entry): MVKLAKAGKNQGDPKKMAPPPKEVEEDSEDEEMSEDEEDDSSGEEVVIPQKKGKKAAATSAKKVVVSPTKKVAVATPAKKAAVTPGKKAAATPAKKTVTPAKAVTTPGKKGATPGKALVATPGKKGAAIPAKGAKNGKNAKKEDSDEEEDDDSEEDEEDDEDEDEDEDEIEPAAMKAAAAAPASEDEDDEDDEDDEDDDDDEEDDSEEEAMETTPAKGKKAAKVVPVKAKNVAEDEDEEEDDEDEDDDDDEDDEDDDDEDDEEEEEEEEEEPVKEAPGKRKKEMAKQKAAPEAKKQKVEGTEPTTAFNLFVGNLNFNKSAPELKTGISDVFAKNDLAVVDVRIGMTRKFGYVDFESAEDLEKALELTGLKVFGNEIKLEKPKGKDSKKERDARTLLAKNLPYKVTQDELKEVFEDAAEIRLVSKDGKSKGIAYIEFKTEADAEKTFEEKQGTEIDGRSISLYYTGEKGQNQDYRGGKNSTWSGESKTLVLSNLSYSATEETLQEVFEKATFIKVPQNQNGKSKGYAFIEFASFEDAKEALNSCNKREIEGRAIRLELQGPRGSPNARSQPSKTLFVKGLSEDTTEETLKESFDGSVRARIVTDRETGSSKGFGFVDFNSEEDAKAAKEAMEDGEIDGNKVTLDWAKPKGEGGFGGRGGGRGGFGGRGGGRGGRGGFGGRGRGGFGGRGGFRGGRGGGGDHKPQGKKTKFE
Procedure: (§1) The SPR sensorgrams shown are from an experiment that is representative of a set of three separate experiments using different sensor chips with similar results. Recombinant NCL was immobilized onto a CM5 sensor chip. Various concentrations of AGM-330 (20 nM to 2.5 µM) were incubated with immobilized NCL and analyzed on a Biacore T-200 apparatus.
(§2) Binding affinity was tested by SPR (surface plasmon resonance) spectroscopy (Biacore T-200). The recombinant nucleolin protein was immobilized on the CM5 sensorchip, and the treated with AGM-330 at various concentrations (20 nM to 2.5 µM). The sensogram for each sample was analyzed to determine the KD value.

[6] = biological target: T1, recombinant nucleolin protein; test: SPR (Biacore T-200), recombinant NCL immobilised on a CM5 chip, AGM-330 at 20 nM to 2.5 uM
Procedure: as §1, §2

`CC[C@H](C)[C@H](NC(=O)[C@H](CCCNC(=N)N)NC(=O)[C@H](CC(C)C)NC(=O)[C@@H](NC(=O)[C@H](CCCNC(=N)N)NC(=O)[C@H](CCSC)NC(=O)[C@@H](NC(=O)[C@@H](N)CCCNC(=N)N)[C@@H](C)CC)[C@@H](C)CC)C(=O)N[C@@H](CC(C)C)C(=O)N[C@@H](CCCCN)C(=O)N[C@@H](CC(C)C)C(=O)N[C@@H](C)C(=O)N[C@@H](CCCNC(=N)N)C(=O)NCCCC[C@H](NC(=O)[C@H](CCCNC(=N)N)NC(=O)[C@H](C)NC(=O)[C@H](CC(C)C)NC(=O)[C@H](CCCCN)NC(=O)[C@H](CC(C)C)NC(=O)[C@@H](NC(=O)[C@H](CCCNC(=N)N)NC(=O)[C@H](CC(C)C)NC(=O)[C@@H](NC(=O)[C@H](CCCNC(=N)N)NC(=O)[C@H](CCSC)NC(=O)[C@@H](NC(=O)[C@@H](N)CCCNC(=N)N)[C@@H](C)CC)[C@@H](C)CC)[C@@H](C)CC)C(=O)N[C@@H](CSSC[C@H](NC(=O)[C@H](CCCCNC(=O)CCOCCOCCOCCOCCOCCOCCNC(=O)[C@H](CCCCN)NC(=O)[C@H](CC(C)C)NC(=O)[C@H](Cc1ccc(O)cc1)NC(=O)[C@@H](NC(=O)[C@H](CCSC)NC(=O)[C@H](C)NC(=O)CNC(=O)[C@H](Cc1c[nH]cn1)NC(=O)[C@@H](N)CCCNC(=N)N)C(C)C)NC(=O)CCOCCOCCOCCOCCOCCOCCNC(=O)[C@H](CCCCN)NC(=O)[C@H](CC(C)C)NC(=O)[C@H](Cc1ccc(O)cc1)NC(=O)[C@@H](NC(=O)[C@H](CCSC)NC(=O)[C@H](C)NC(=O)CNC(=O)[C@H](Cc1c[nH]cn1)NC(=O)[C@@H](N)CCCNC(=N)N)C(C)C)C(=O)O)C(=O)O` [AGM-330d-dCPP] showed an IC50 [1] of 4.21 µM and an IC50 [2] of 5.47 µM.

With `CSCC[C@H](NC(=O)[C@H](C)NC(=O)CNC(=O)[C@H](Cc1c[nH]cn1)NC(=O)[C@@H](N)CCCNC(=N)N)C(=O)N[C@H](C(=O)N[C@@H](Cc1ccc(O)cc1)C(=O)N[C@@H](CC(C)C)C(=O)N[C@@H](CCCCN)C(=O)NCCOCCOCCOCCOCCOCCOCCOCCOCCOCCOCCOCCOCCC(=O)NCCCC[C@H](NC(=O)CCOCCOCCOCCOCCOCCOCCOCCOCCOCCOCCOCCOCCNC(=O)[C@H](CCCCN)NC(=O)[C@H](CC(C)C)NC(=O)[C@H](Cc1ccc(O)cc1)NC(=O)[C@@H](NC(=O)[C@H](CCSC)NC(=O)[C@H](C)NC(=O)CNC(=O)[C@H](Cc1c[nH]cn1)NC(=O)[C@@H](N)CCCNC(=N)N)C(C)C)C(=O)NCCCC[C@H](NC(=O)[C@H](CCCCNC(=O)CCOCCOCCOCCOCCOCCOCCOCCOCCOCCOCCOCCOCCNC(=O)[C@H](CCCCN)NC(=O)[C@H](CC(C)C)NC(=O)[C@H](Cc1ccc(O)cc1)NC(=O)[C@@H](NC(=O)[C@H](CCSC)NC(=O)[C@H](C)NC(=O)CNC(=O)[C@H](Cc1c[nH]cn1)NC(=O)[C@@H](N)CCCNC(=N)N)C(C)C)NC(=O)CCOCCOCCOCCOCCOCCOCCOCCOCCOCCOCCOCCOCCNC(=O)[C@H](CCCCN)NC(=O)[C@H](CC(C)C)NC(=O)[C@H](Cc1ccc(O)cc1)NC(=O)[C@@H](NC(=O)[C@H](CCSC)NC(=O)[C@H](C)NC(=O)CNC(=O)[C@H](Cc1c[nH]cn1)NC(=O)[C@@H](N)CCCNC(=N)N)C(C)C)C(=O)N[C@@H](CSC1CC(=O)N(CCC(=O)O[C@@H](C(=O)O[C@H]2C[C@@]3(O)[C@@H](OC(=O)c4ccccc4)[C@@H]4[C@]5(OC(C)=O)CO[C@@H]5C[C@H](O)[C@@]4(C)C(=O)[C@H](OC(C)=O)C(=C2C)C3(C)C)[C@@H](NC(=O)c2ccccc2)c2ccccc2)C1=O)C(=O)O)C(C)C` (stereo partly shown) [AGM-330t-PTX] the average tumor volume ([3]; 19.05 mg/kg twice a week, tail vein, n=5) was 807±90 mm^3, the “decrease of average tumor volume with respect to the same dose PTX” value ([3]; 19.05 mg/kg vs PTX 2 mg/kg) was “approximately 52%” and the “final average tumor weight” value ([3]; 19.05 mg/kg, n=5) was 1.3 ± 0.1 g. The “apoptotic cell nuclei in excised tumors (TUNEL)” value ([3]; mouse, in vivo) was “increase in apoptotic cell nuclei”, the “number of cancerous cells in excised tumors (H&E staining, Ki-67)” value ([3]; mouse, in vivo) was “reduction in the number of cancerous cells” and the “mouse body weights compared to vehicle (PBS) administration” value ([4]; AGM-330t-PTX 19.05 mg/kg, 3 weeks) was “not affected”. For the same molecule, the “blood chemistry analysis (ALB, GOT, GPT, TP-PS, UA)” value ([4]; serum of xenografted mice) was “no adverse signs of toxicity”.

`CC[C@H](C)[C@H](NC(=O)[C@H](CCCNC(=N)N)NC(=O)[C@H](CC(C)C)NC(=O)[C@@H](NC(=O)[C@H](CCCNC(=N)N)NC(=O)[C@H](CCSC)NC(=O)[C@@H](NC(=O)[C@@H](N)CCCNC(=N)N)[C@@H](C)CC)[C@@H](C)CC)C(=O)N[C@@H](CC(C)C)C(=O)N[C@@H](CCCCN)C(=O)N[C@@H](CC(C)C)C(=O)N[C@@H](C)C(=O)N[C@@H](CCCNC(=N)N)C(=O)NCCCC[C@H](NC(=O)[C@H](CCCNC(=N)N)NC(=O)[C@H](C)NC(=O)[C@H](CC(C)C)NC(=O)[C@H](CCCCN)NC(=O)[C@H](CC(C)C)NC(=O)[C@@H](NC(=O)[C@H](CCCNC(=N)N)NC(=O)[C@H](CC(C)C)NC(=O)[C@@H](NC(=O)[C@H](CCCNC(=N)N)NC(=O)[C@H](CCSC)NC(=O)[C@@H](NC(=O)[C@@H](N)CCCNC(=N)N)[C@@H](C)CC)[C@@H](C)CC)[C@@H](C)CC)C(=O)NCCCC[C@H](NC(=O)[C@H](CCCCNC(=O)[C@H](CCCNC(=N)N)NC(=O)[C@H](C)NC(=O)[C@H](CC(C)C)NC(=O)[C@H](CCCCN)NC(=O)[C@H](CC(C)C)NC(=O)[C@@H](NC(=O)[C@H](CCCNC(=N)N)NC(=O)[C@H](CC(C)C)NC(=O)[C@@H](NC(=O)[C@H](CCCNC(=N)N)NC(=O)[C@H](CCSC)NC(=O)[C@@H](NC(=O)[C@@H](N)CCCNC(=N)N)[C@@H](C)CC)[C@@H](C)CC)[C@@H](C)CC)NC(=O)[C@H](CCCNC(=N)N)NC(=O)[C@H](C)NC(=O)[C@H](CC(C)C)NC(=O)[C@H](CCCCN)NC(=O)[C@H](CC(C)C)NC(=O)[C@@H](NC(=O)[C@H](CCCNC(=N)N)NC(=O)[C@H](CC(C)C)NC(=O)[C@@H](NC(=O)[C@H](CCCNC(=N)N)NC(=O)[C@H](CCSC)NC(=O)[C@@H](NC(=O)[C@@H](N)CCCNC(=N)N)[C@@H](C)CC)[C@@H](C)CC)[C@@H](C)CC)C(=O)N[C@@H](CSSC[C@H](NC(=O)[C@H](CCCCNC(=O)[C@H](CCCCNC(=O)CCOCCOCCOCCOCCOCCOCCNC(=O)[C@H](CCCCN)NC(=O)[C@H](CC(C)C)NC(=O)[C@H](Cc1ccc(O)cc1)NC(=O)[C@@H](NC(=O)[C@H](CCSC)NC(=O)[C@H](C)NC(=O)CNC(=O)[C@H](Cc1c[nH]cn1)NC(=O)[C@@H](N)CCCNC(=N)N)C(C)C)NC(=O)CCOCCOCCOCCOCCOCCOCCNC(=O)[C@H](CCCCN)NC(=O)[C@H](CC(C)C)NC(=O)[C@H](Cc1ccc(O)cc1)NC(=O)[C@@H](NC(=O)[C@H](CCSC)NC(=O)[C@H](C)NC(=O)CNC(=O)[C@H](Cc1c[nH]cn1)NC(=O)[C@@H](N)CCCNC(=N)N)C(C)C)NC(=O)[C@H](CCCCNC(=O)CCOCCOCCOCCOCCOCCOCCNC(=O)[C@H](CCCCN)NC(=O)[C@H](CC(C)C)NC(=O)[C@H](Cc1ccc(O)cc1)NC(=O)[C@@H](NC(=O)[C@H](CCSC)NC(=O)[C@H](C)NC(=O)CNC(=O)[C@H](Cc1c[nH]cn1)NC(=O)[C@@H](N)CCCNC(=N)N)C(C)C)NC(=O)CCOCCOCCOCCOCCOCCOCCNC(=O)[C@H](CCCCN)NC(=O)[C@H](CC(C)C)NC(=O)[C@H](Cc1ccc(O)cc1)NC(=O)[C@@H](NC(=O)[C@H](CCSC)NC(=O)[C@H](C)NC(=O)CNC(=O)[C@H](Cc1c[nH]cn1)NC(=O)[C@@H](N)CCCNC(=N)N)C(C)C)C(=O)O)C(=O)O` [AGM-330t-tCPP] showed an IC50 [1] of 3.8 µM and an IC50 [2] of 3.79 µM.

B1: AGM-330 (peptide)
peptide: RHGAMVYLK
modifications: not fully specified (C-terminus); also: MAP dendrimer (dimer/tetramer) on lysine core with C-terminal Cys
notes: The form used in SPR (monomer, dimer or tetramer); also called AGM-330 peptide; AGM peptide ligand
Work on B1 yielded a Kd [5] of 57.7 nM and a Kd [6] of about 57.7 nM.
